molecular target: human Nav1.7 (Homo sapiens (Human), UniProt Q15858); assay: Human Nav1.7 inhibitory activity evaluation (automated patch clamp QPatch16X, HEK293A cells stably expressing human Nav1.7 and human Navβ1); assay type: cell-based; details: HEK293A cells stably expressing human Nav1.7 and human Navβ1, automated patch clamp QPatch16X
Method: Test Example 1: Human Nav1.7 Inhibitory Activity Evaluation
A cell line in which human Nav1.7 and human Navβ1 subunits were stably expressed in HEK293A cells was used. Dulbecco's Modified Eagle Medium (DMEM) supplemeted with 10% fetal bovine serum, 600 μg/ml geneticin, and 2 μg/ml blasticidin S were used as culture medium under the conditions of 37° C. and 5% CO2 in T175 flasks to carry out culturing. When 60-80% confluence was reached, the cells were detached and a cell suspension of about 0.5-5.0×10^6 cells/mL was prepared. The amount of current through human Nav1.7 was recorded using a fully automatic patch clamp device QPatch16X (Sophion Biosciences) at room temperature. As the extracellular solution, the solution of 145 mM NaCl, 4 mM KCl, 1 mM MgCl2, 2 mM CaCl2, 10 mM Glucose, 10 mM 4-(2-hydroxyethyl)-1-piperazine ethanesulfonic acid (HEPES) at pH 7.4 was used. As the intracellular solution, the solution of 135 mM CsF, ⅕ mM glycol ether diaminetetraacetic acid (EGTA)/CsOH, 10 mM HEPES, 10 mM NaCl at pH 7.3 was used. The test compounds were dissolved in dimethyl sulfoxide (DMSO) and diluted with the extracellular solution to attain the DMSO concentration of 0.1% at the time of assay.
The current response was obtained at a sampling frequency of 25 kHz, and noise was removed with a 3 kHz low-pass filter. The holding potential was −100 mV. Correction of the leakage current was carried out by applying a step pulse of −120 mV before the test pulse. In order to investigate inhibitory action of the test compound, the following test pulse was given: Namely, after depolarizing pulse of −10 mV was applied for 50 milliseconds, it was fixed at −120 mV for 500 milliseconds; a potential at which about 30-40% of the channel was inactivated was maintained for 15 seconds, then fixed again at −120 mV for 100 milliseconds, and finally a −10 mV depolarization pulse was given for 50 milliseconds. Test pulses were given before and after the test compound addition.
The inhibitory activity of the test compound was determined based on the amount of inward current generated by the second depolarization pulse, and the 50% inhibitory concentration (IC50) was calculated from the concentration-response curve.

Sequence of human Nav1.7 (Q15858 whole entry): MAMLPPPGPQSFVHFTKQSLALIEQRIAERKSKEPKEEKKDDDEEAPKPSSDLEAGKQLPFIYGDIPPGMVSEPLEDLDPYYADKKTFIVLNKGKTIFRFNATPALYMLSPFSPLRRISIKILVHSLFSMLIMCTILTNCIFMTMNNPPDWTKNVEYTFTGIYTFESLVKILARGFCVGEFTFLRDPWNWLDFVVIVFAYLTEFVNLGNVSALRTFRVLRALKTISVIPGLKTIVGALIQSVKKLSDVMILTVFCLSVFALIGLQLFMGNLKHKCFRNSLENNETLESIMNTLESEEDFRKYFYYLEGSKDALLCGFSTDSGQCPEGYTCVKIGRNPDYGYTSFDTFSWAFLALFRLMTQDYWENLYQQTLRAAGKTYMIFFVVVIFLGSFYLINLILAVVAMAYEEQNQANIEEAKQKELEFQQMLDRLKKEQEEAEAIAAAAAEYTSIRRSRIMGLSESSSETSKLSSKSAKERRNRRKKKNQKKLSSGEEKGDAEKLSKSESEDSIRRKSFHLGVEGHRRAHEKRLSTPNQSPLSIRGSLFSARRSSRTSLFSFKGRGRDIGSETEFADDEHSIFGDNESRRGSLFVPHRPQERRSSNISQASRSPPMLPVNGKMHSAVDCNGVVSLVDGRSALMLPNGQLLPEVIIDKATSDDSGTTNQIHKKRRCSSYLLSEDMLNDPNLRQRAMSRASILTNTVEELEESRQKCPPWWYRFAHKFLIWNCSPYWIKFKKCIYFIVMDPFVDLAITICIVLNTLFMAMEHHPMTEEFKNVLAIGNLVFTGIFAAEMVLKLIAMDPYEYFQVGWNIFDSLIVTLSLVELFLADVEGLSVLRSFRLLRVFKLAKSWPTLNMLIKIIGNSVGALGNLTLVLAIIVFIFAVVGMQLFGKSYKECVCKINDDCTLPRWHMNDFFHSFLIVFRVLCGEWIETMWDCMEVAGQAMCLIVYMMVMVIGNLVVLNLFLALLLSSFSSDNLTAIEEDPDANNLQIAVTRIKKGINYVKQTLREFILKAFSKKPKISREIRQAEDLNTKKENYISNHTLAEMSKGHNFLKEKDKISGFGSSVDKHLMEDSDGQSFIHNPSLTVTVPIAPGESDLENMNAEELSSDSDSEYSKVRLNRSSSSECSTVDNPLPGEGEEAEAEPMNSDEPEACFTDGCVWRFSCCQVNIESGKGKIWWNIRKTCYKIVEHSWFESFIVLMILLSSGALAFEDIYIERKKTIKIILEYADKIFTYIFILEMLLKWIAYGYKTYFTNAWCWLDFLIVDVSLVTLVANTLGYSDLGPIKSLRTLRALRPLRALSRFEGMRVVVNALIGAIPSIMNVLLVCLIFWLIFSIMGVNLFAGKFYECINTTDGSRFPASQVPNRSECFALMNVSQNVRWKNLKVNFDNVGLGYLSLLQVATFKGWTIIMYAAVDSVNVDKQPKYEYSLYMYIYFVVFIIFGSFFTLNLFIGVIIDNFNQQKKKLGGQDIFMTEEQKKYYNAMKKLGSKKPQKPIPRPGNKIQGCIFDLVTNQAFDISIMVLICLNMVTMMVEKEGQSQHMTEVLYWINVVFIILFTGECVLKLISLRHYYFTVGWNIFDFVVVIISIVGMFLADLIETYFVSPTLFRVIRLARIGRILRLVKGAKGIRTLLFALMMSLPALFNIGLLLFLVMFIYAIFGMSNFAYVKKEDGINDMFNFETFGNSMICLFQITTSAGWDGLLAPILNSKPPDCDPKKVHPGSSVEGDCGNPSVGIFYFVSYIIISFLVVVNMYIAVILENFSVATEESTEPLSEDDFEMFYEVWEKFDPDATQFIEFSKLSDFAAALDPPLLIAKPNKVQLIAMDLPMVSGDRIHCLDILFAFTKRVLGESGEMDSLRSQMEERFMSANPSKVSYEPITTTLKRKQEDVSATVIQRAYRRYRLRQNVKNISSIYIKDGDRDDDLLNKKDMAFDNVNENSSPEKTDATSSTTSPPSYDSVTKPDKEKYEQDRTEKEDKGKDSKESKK
Sequence of human Nav1.7 (Q07699 19-218 partner): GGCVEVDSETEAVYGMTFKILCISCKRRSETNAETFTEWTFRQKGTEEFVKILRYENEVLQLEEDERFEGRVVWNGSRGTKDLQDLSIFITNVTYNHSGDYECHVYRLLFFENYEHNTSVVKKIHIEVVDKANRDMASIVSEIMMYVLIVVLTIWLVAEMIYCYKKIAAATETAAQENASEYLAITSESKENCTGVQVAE

Row | IC50 | SMILES
1 | < 10 µM | O=C(NC1COc2cccc(C3CC3)c2C1)c1cn2c(n1)CCC(C(F)(F)F)C2 (stereo not drawn) [Example 10]
2 | < 10 µM | COc1ccc2c(c1)CC(NC(=O)c1cn3c(n1)CCC(C(F)(F)F)C3)CO2 (stereo not drawn) [Example 13]
3 | < 1 µM | COc1cccc(-c2c(C(=O)N[C@H]3COc4ccccc4C3)nc3n2CC(C(F)(F)F)CC3)n1 (stereo partly drawn) [Example 15]
4 | < 1 µM | O=C(N[C@H]1COc2ccc(Cl)cc2C1)c1nc2n(c1-c1ccccn1)CCCC2 [Example 18, (R)—N-(6-chlorochroman-3-yl)-3-(pyridin-2-yl)-5,6,7,8-tetrahydroimidazo[1,2-a]pyridine-2-carboxamide]
5 | < 1 µM | O=C(N[C@H]1COc2ccccc2C1)c1cn2c(n1)CCC(C1CCCC1)C2 (stereo partly drawn) [Example 24]
6 | < 1 µM | O=C(c1cn2c(n1)CCC(C1CCCCC1)C2)N1CCC1Cc1ccccc1 (stereo not drawn) [Example 31]
7 | < 10 µM | O=C(N[C@H]1COc2ccccc2C1)c1cn2c(n1)CCC(NCc1ccccc1)C2 (stereo partly drawn) [Example 42]
8 | < 10 µM | CN1Cc2nc(C(=O)N[C@H]3COc4ccccc4C3)cn2CC1c1ccc(F)c(F)c1 (stereo partly drawn) [Example 45]
9 | < 10 µM | CC(C)CCC1Cn2cc(C(=O)N[C@H]3COc4ccccc4C3)nc2CN1C (stereo partly drawn) [Example 50]
10 | < 10 µM | O=C(N[C@H]1COc2ccccc2C1)c1cn2c(n1)CNC(CCc1ccc(F)cc1)C2 (stereo partly drawn) [Example 53]
11 | < 10 µM | CN1Cc2nc(C(=O)N[C@H]3COc4ccccc4C3)cn2CC1CCc1ccc(F)cc1 (stereo partly drawn) [Example 54]
12 | < 10 µM | O=C(N[C@H]1COc2ccccc2C1)c1cn2c(n1)CNC(c1ccccc1)C2 (stereo partly drawn) [Example 56]
13 | < 10 µM | CN1Cc2nc(C(=O)N3CC(Oc4cccc(C(F)(F)F)n4)C3)cn2CC1c1ccccc1 (stereo not drawn) [Example 63]
14 | < 10 µM | COc1cccc(-c2c(C(=O)N[C@H]3COc4ccccc4C3)nn3c2CCCC3)n1 [Example 69]
15 | < 10 µM | COc1cc(C2CCn3nc(C(=O)N[C@H]4COc5ccc(C#N)cc5C4)cc3O2)ccn1 (stereo partly drawn) [Example 73]
16 | < 10 µM | O=C(N[C@H]1COc2ccc(CO)cc2C1)c1cc2n(n1)CCC(c1ccccc1F)O2 (stereo partly drawn) [Example 82]
17 | < 1 µM | C[C@H]1CCn2nc(C(=O)N[C@H]3COc4ccc(Br)cc4C3)cc2O1 [Example 88]
18 | < 1 µM | C[C@@H]1CCn2nc(C(=O)N[C@H]3COc4ccc(Br)cc4C3)cc2O1 [Example 89]
19 | < 1 µM | CCC1CCn2nc(C(=O)N[C@H]3COc4ccc(-c5cnc(OC)nc5)cc4C3)cc2O1 (stereo partly drawn) [Example 93]
20 | < 1 µM | N#Cc1ccc2c(c1)C[C@@H](NC(=O)c1cc3n(n1)CCC(COCc1ccccc1)O3)CO2 (stereo partly drawn) [Example 99]
21 | < 1 µM | N#Cc1ccc2c(c1)C[C@@H](NC(=O)c1cc3n(n1)CCC(COCc1cccc(F)c1)O3)CO2 (stereo partly drawn) [Example 104]
22 | < 1 µM | O=C(N[C@H]1COc2ccc(Cl)cc2C1)c1cc2n(n1)CCC(COCC1CC1)O2 (stereo partly drawn) [Example 106]
23 | < 10 µM | N#Cc1ccc(-c2ccc3c(c2)C[C@@H](NC(=O)c2cc4n(n2)CCC(COCC2CC2)O4)CO3)cn1 (stereo partly drawn) [Example 107]
24 | < 1 µM | N#Cc1ccc2c(c1)C[C@@H](NC(=O)c1cc3n(n1)CCC(COC(C(F)(F)F)C(F)(F)F)O3)CO2 (stereo partly drawn) [Example 116]
25 | < 1 µM | N#Cc1ccc2c(c1)C[C@@H](NC(=O)c1cc3n(n1)CCC(CSc1ccccc1)O3)CO2 (stereo partly drawn) [Example 119]
26 | < 10 µM | O=C(N[C@H]1COc2ccc(Cl)cc2C1)c1cc2n(n1)CCC(COc1ccncc1)O2 (stereo partly drawn) [Example 120]
27 | < 10 µM | CN(Cc1ccccc1)CC1CCn2nc(C(=O)N[C@H]3COc4ccc(Cl)cc4C3)cc2O1 (stereo partly drawn) [Example 121]
28 | < 10 µM | N#Cc1ccc(-c2ccc3c(c2)C[C@@H](NC(=O)c2cc4n(n2)CCC(COCC(F)(F)F)O4)CO3)cn1 (stereo partly drawn) [Example 132]

same assay, conditions: human Nav1.7, automated patch clamp

Row | IC50 | SMILES
29 | < 10 µM | O=C(N[C@H]1COc2ccc(C(F)(F)F)cc2C1O)c1cc2n(n1)CC(CSCC(F)(F)F)O2 (single isomer, unassigned) [641 (isomer A)]
30 | < 10 µM | O=C(N[C@H]1COc2ccc(C(F)(F)F)cc2C1O)c1cc2n(n1)CCC(OCCOCC(F)(F)F)CO2 (single isomer, unassigned) [Example 681]
31 | < 10 µM | N#Cc1ccc2c(c1)C[C@@H](NC(=O)c1cc3n(n1)C[C@H](CC1CCOCC1)O3)CO2 (single isomer, unassigned; isomer a) [577(isomer A)]
32 | < 1 µM | O=C(N[C@H]1COc2ccc(CC(F)F)cc2C1)c1cc2n(n1)C[C@H](CC1CCOCC1)O2 (single isomer, unassigned; isomer a) [590(isomer A)]
33 | < 1 µM | COC1c2cc(C(F)(F)F)ccc2OC[C@@H]1NC(=O)c1cc2n(n1)CCC(COCC(F)(F)F)O2 (single isomer, unassigned; isomer a) [598(isomer A)]
34 | < 1 µM | CC(C)(F)C1CCn2nc(C(=O)N[C@H]3COc4ccc(Cl)cc4C3)cc2O1 (stereo partly drawn) [Example 166]
35 | < 10 µM | COc1ncc(-c2ccc3c(c2)C[C@@H](NC(=O)c2cc4n(n2)CCC(C(F)(F)F)O4)CO3)cn1 (stereo partly drawn) [Example 176]
36 | < 10 µM | CC1(C)CCn2nc(C(=O)N[C@H]3COc4ccc(-c5ccc(C#N)nc5)cc4C3)cc2O1 [Example 179]
37 | < 10 µM | N#Cc1ccc2c(c1)C[C@@H](NC(=O)c1cc3n(n1)CCC1(CCC1)O3)CO2 [Example 180]
38 | < 10 µM | O=C(N[C@H]1COc2ccc(COCC(F)(F)F)cc2C1)c1cc2n(n1)CC(C(F)(F)F)O2 (stereo partly drawn) [Example 183]
39 | < 1 µM | O=C(N[C@H]1COc2ccc(CC(F)(F)F)cc2C1)c1cc2n(n1)CC(COCC(F)(F)F)O2 (stereo partly drawn) [Example 191]
40 | < 10 µM | Cc1cnc(-c2ccc3c(c2)C[C@@H](NC(=O)c2cc4n(n2)CC(COCC(F)(F)F)O4)CO3)cn1 (stereo partly drawn) [Example 193]
41 | < 1 µM | O=C(N[C@H]1COc2ccc(CC(F)F)cc2C1)c1cc2n(n1)CC(CCOC(F)(F)F)O2 (stereo partly drawn) [Example 210]
42 | < 1 µM | O=C(N[C@H]1COc2ccc(CCOC(F)F)cc2C1)c1cc2n(n1)CC(CCOC(F)F)O2 (stereo partly drawn) [Example 216]
43 | < 10 µM | O=C(N[C@H]1COc2ccc(C(F)(F)F)cc2C1)c1cc2n(n1)CC(CCN1CC(F)(F)C1)O2 (stereo partly drawn) [Example 235]
44 | < 1 µM | O=C(N[C@H]1COc2ccc(CCOC(F)F)cc2C1)c1cc2n(n1)CC(CCN1CC(F)(F)C1)O2 (stereo partly drawn) [Example 237]
45 | < 1 µM | O=C(N[C@H]1COc2ccc(CCOC(F)(F)F)cc2C1)c1cc2n(n1)CC(CCN1CC(F)(F)C1)O2 (stereo partly drawn) [Example 239]
46 | < 10 µM | O=C(N[C@H]1COc2ccc(C(F)(F)F)cc2C1)c1nn2c(c1-c1ccn[nH]1)OCC2 [Example 249]
47 | < 10 µM | CC1(C)Cn2nc(C(=O)N[C@H]3COc4ccc(C(F)(F)F)cc4C3)c(-c3ccn[nH]3)c2O1 [Example 250]
48 | < 1 µM | O=C(N[C@H]1COc2ccc(C(F)(F)F)cc2C1)c1nn2c(c1-c1ccn[nH]1)COCC2 [Example 259, (R)-3-(1H-pyrazol-5-yl)-N-(6-(trifluoromethyl)chroman-3-yl)-6,7-dihydro-4H-pyrazolo[5,1-c][1,4]oxazine-2-carboxamide]
49 | < 1 µM | O=C(NC1COc2ccc(C(F)(F)F)cc2C1)c1cc2n(n1)CCN(CCC1CC1)C2 (stereo not drawn) [Example 264]
50 | < 1 µM | N#Cc1ccc2c(c1)C[C@@H](NC(=O)c1cc3n(n1)CCN(CCc1ccc(F)cc1)C3)CO2 [Example 269]
51 | < 10 µM | CC(C)CN1CCn2nc(C(=O)N[C@H]3COc4ccc(C#N)cc4C3)cc2C1 [Example 270]

Reference: patent US12421225B2, “Heteroaromatic amide derivative and medicament containing the same” (KAKEN PHARMACEUTICAL CO., LTD., priority 2018, dated 2025)
